We go through five molecules from patent US9872922B2, “Anti-EFNA4 antibody-drug conjugates” (PFIZER, INC., priority 2013, dated 2018).

For experiment [1], the system named is Breast-5 (BR5) triple-negative breast cancer (TNBC) PDX. Nature of the experiment: In vivo efficacy, BR5 TNBC PDX. The note with it: for tumor volume ± SEM: 1.5 mg/kg. On the set-up: species or system NOD/SCID mice (human tumor PDX).
The subject of experiment [2] is Breast-13 (BR13) TNBC PDX. Nature of the experiment: In vivo efficacy, BR13 TNBC PDX. More on the design: species or system NOD/SCID mice (human tumor PDX). The note with it: for tumor volume ± SEM: 1.5 mg/kg.
Experiment [3] deals with Breast-31 (BR31) TNBC PDX. Nature of the experiment: In vivo efficacy, BR31 TNBC PDX. More on the design: species or system NOD/SCID mice (human tumor PDX). Particulars: for mean tumor volume: 1.5 mg/kg.
Experiment [4] has as its system Breast-56 (BR56) TNBC PDX. Nature of the experiment: In vivo efficacy, BR56 TNBC PDX. More on the design: species or system NOD/SCID mice (human tumor PDX). Particulars: for tumor volume ± SEM: 1.5 mg/kg.
Experiment [5] relates to Ovarian-39 (OV39) ovarian cancer PDX. Nature of the experiment: In vivo efficacy, OV39 ovarian cancer PDX. More on the design: species or system NOD/SCID mice (human tumor PDX). The note with it: 1.5 mg/kg.
A further experiment has as its system BR25. Nature of the experiment: In vivo efficacy, BR25 TNBC Claudin-low tumor model. More on the design: species or system mice. Particulars: 1.5 mpk.
A further experiment relates to BR64. Put plainly: In vivo efficacy, BR64 TNBC Claudin-low tumor model. On the set-up: species or system mice. Particulars: 1.5 mpk.
The test system of a further experiment is BR17. Nature of the experiment: In vivo efficacy, BR17 HER2+ breast tumor model. The note with it: 1.5 mpk. More on the design: species or system mice.
Experiment [6] concerns Breast-22 (BR22) TNBC PDX. Nature of the experiment: In vivo efficacy, BR22 TNBC PDX. The note with it: for tumor volume ± SEM: 1.5 mg/kg.
Excerpt: (§1) In breast and ovarian models, tumor regression was defined as a reduction in mean tumor volume after dosing. TGI=Tumor Growth Inhibition. % TGI=[1−(Mean Tumor Volume of Treated)/(Mean Tumor Volume of Vehicle)]. […] ADC dose levels are listed in mg/kg according to antibody content.
A further experiment has as its target T1, human EFNA4 (Homo sapiens, UniProt P52798).
T1 sequence (P52798 26-170): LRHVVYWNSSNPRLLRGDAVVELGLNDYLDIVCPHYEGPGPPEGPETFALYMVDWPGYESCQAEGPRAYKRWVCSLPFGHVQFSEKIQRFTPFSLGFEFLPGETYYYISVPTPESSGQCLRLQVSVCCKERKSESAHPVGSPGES
Put plainly: Biacore affinity of anti-EFNA4 antibodies for EFNA4 antigen. The experiment is classed as binding. The note with it: Biacore system. The source says:
More particularly murine antibodies E5, E15, E22 and E47 were humanized using a computer-aided CDR-grafting method (Abysis Database, UCL Business Pic.) and standard molecular engineering techniques to generate humanized antibodies E5, E15, E22 and E47, hereinafter huE5, huE15, huE22 and huE47, respectively. The human framework regions of the variable regions were selected based on their highest sequence homology to the mouse framework sequence and its canonical structure. For the purposes of the analysis the assignment of amino acids to each of the CDR domains is in accordance with the Kabat et al. numbering.
Background: Surface plasmon resonance follows binding to a sensor surface in real time, without labels.

In a further experiment the target is T2, human Ephrin-A4 (Homo sapiens, UniProt P52798).
T2 construct: purchased
T2 sequence (P52798 26-170): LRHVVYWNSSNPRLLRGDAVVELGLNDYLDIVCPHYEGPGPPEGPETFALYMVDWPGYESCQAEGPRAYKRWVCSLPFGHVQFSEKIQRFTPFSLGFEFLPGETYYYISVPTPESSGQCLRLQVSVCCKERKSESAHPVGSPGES
Put plainly: SPR steady state affinity of Eph receptors for Ephrin-A4. Type of experiment: binding. The note with it: SPR BIAcore 2000, steady state affinity fit, captured Eph receptor, monomeric human Ephrin-A4 as analyte. How it is done: The properties of Ephrin-A4 binding to Eph receptors were further analyzed. Since anti-EFNA4 antibodies bind to Ephrin-A4 while the ligand is engaged with its Eph receptor, the affinity between these two macromolecules was determined. The affinities of commercially available Eph receptors and Ephrin-A4 were directly compared by surface plasmon resonance using a BIAcore 2000 (GE Healthcare) to determine the most relevant receptor. An anti-human antibody capture kit was used to immobilize recombinant Eph receptors on a CM5 biosensor chip. Prior to each antigen injection cycle, Eph receptors at the concentration of 2 μg/mL were captured on the surface with a contact time of 2 minutes and a flow rate of 5 μL/min. The captured antibody loading from baseline was constant at 150-260 response units. Following receptor capture and 1 min baseline, monomeric human Ephrin-A4 was flowed over the surface at concentrations of 400, 241, 145, 87, 53, 32, 19 and 12 nM for a 2 minute association phase followed by a 2 minute dissociation phase at a flow rate of 10 μL/min. Following each cycle, the anti-human capture surface was regenerated with 30 seconds contact time of 3M MgCl2 at 10 μL/min.
Biacore data was processed by initially calculating an average of the response at equilibrium (Req). The Req was then plotted versus concentration (M) and the steady state affinity fit was used to calculate the affinity and theoretical Rmax. In all cases, at least 5 different analyte concentrations were used to make this calculation. All data analysis steps were completed in BiaEvaluation Software 3.1 (GE Healthcare).

Excerpt for BR17: as §1
Excerpt for BR25: as §1
Excerpt for BR64: as §1

On to `COc1cccc2c1C(=O)c1c(O)c3c(c(O)c1C2=O)C[C@@](O)(C(=O)CO)C[C@@H]3O[C@H]1C[C@H](N)[C@H](O)[C@H](C)O1` [Doxorubicin, doxorubicin, reference compound], for which the “tumor volume ± SEM” value is recorded as 166 ± 18 mm^3 in [1] (Day 0); 494 ± 70 mm^3 in experiment [1] (Day 7); 752 ± 92 mm^3 in experiment [1] (Day 11); 966 ± 32 mm^3 in experiment [1] (Day 18); 167 ± 13 mm^3 in [2] (Day 0); 178 ± 20 mm^3 in experiment [2] (Day 7). For the same molecule, the “tumor volume ± SEM” value in experiment [2] (Day 22) amounted to 322 ± 38 mm^3; in experiment [2] (Day 14) it was 227 ± 25 mm^3; in experiment [2] (Day 28), 326 ± 34 mm^3; in experiment [4] (Day 0), 141 ± 13 mm^3; in experiment [4] (Day 4) it was 182 ± 11 mm^3; in [4] (Day 11), 267 ± 31 mm^3. Moreover, the “tumor volume ± SEM” value in experiment [4] (Day 18) is listed as 318 ± 32 mm^3; in experiment [4] (Day 25), 374 ± 50 mm^3; in experiment [6] (Day 0) it was 244 ± 17 mm^3; in experiment [6] (Day 7) it was 416 ± 61 mm^3; in experiment [6] (Day 14), 553 ± 39 mm^3; in experiment [6] (Day 21), 729 ± 91 mm^3. In addition, the “% TGI” value in experiment [1] (1.5 mpk, BR5 PDX) was 44% TGI; in experiment [2] (1.5 mpk, BR13), 16% TGI; in experiment [3] (1.5 mpk, BR31 PDX), 30% TGI; in [4] (1.5 mpk, BR56 PDX), 49% TGI; with BR17, 66% TGI; in experiment [6] (1.5 mpk, BR22 PDX), 27% TGI. Moreover, the “impact on tumor growth” value is listed as “neither the control ADC nor doxorubicin standard-of-care (SOC) impacted tumor growth” in experiment [1] (in vivo); “neither the control ADC nor doxorubicin SOC impacted tumor growth” in [2] (in vivo); “neither the control ADC nor doxorubicin SOC impacted tumor growth” in experiment [3] (in vivo); “neither the control ADC nor doxorubicin SOC impacted tumor growth” in experiment [4] (in vivo); “Neither the control ADC nor doxorubicin SOC impacted tumor growth” in experiment [6] (in vivo). In addition, the mean tumor volume was determined as 160 ± 11 in [3] (Day 0); 304 ± 20 in experiment [3] (Day 7); 458 ± 24 in experiment [3] (Day 14); 592 ± 56 in [3] (Day 21); 759 ± 111 in experiment [3] (Day 28); 186 ± 33 in [5] (Day 0). Moreover, the mean tumor volume in experiment [5] (Day 7) was determined as 282 ± 50; in [5] (Day 14) it was 171 ± 32; in experiment [5] (Day 17) it was 122 ± 24; in experiment [5] (Day 24) it was 83 ± 11; in [5] (Day 28) it was 118 ± 17; in experiment [5] (Day 35) it was 361 ± 40. In addition, the mean tumor volume amounted to 712 ± 97 in [5] (Day 42) and 966 ± 85 in [5] (Day 49). For the same molecule, the “Regression (TTP, Days) or % TGI” value with BR25 and in the experiment with BR64 was “No activity” in each case.

B1: huE5: humanized antibody E5, VH SEQ ID NO: 5, VL SEQ ID NO: 7 (antibody, V domains shown)
VH: EVQLVESGGGLVQPGGSLRLSCAASGFTVTTYGVDWVRQAPGKGLEWLGVIWGGGSTNYNSALKSRFTISRDNSKNTLYLQMNSLRAEDTAVYYCASDWAYWGQGTLVTVSS
VL: DIQMTQSPSSLSASVGDRVTITCRASQNVGTNVAWFQQKPGKAPKSLIHSASYRYSGVPSRFSGSGSGTDFTLTISSLQPEDFATYYCQQYKRYPYTFGGGTKLEIK
For the molecule B1, the “affinity for EFNA4 antigen relative to murine counterpart” value with human EFNA4 is on record as “slightly lower affinity”.

B2: EphA6 (protein)
chain: WPGDCSHVSNNQVVLLDTTTVLGELGWKTYPLNGWDAITEMDEHNRPIHTYQVCNVMEPNQNNWLRTNWISRDAAQKIYVEMKFTLRDCNSIPWVLGTCKETFNLFYMESDESHGIKFKPNQYTKIDTIAADESFTQMDLGDRILKLNTEIREVGPIERKGFYLAFQDIGACIALVSVRVFYKKCPFTVRNLAMFPDTIPRVDSSSLVEVRGSCVKSAEERDTPKLYCGADGDWLVPLGRCICSTGYEEIEGSCHACRPGFYKAFAGNTKCSKCPPHSLTYMEATSVCQCEKGYFRAEKDPPSMACTRPPSAPRNVVFNINETALILEWSPPSDTGGRKDLTYSVICKKCGLDTSQCEDCGGGLRFIPRHTGLINNSVIVLDFVSHVNYTFEIEAMNGVSELSFSPKPFTAITVTTDQDAPSLIGVVRKDWASQNSIALSWQAPAFSNGAILDYEIKYYEKEHEQLTYSSTRSKAPSVIITGLKPATKYVFHIRVRTATGYSGYSQKFEFETGDETSDMAAEQGQILV
As usually defined, the Kd is the concentration at which binding is half-saturated. Read a high Kd as lower affinity. On to B2, for which binding with human Ephrin-A4 was put at a Kd of 82 nM.

B3: EphB3 (protein)
chain: GCRALEETLMDTKWVTSELAWTSHPESGWEEVSGYDEAMNPIRTYQVCNVRESSQNNWLRTGFIWRRDVQRVYVELKFTVRDCNSIPNIPGSCKETFNLFYYEADSDVASASSPFWMENPYVKVDTIAPDESFSRLDAGRVNTKVRSFGPLSKAGFYLAFQDQGACMSLISVRAFYKKCASTTAGFALFPETLTGAEPTSLVIAPGTCIPNAVEVSVPLKLYCNGDGEWMVPVGACTCATGHEPAAKESQCRPCPPGSYKAKQGEGPCLPCPPNSRTTSPAASICTCHNNFYRADSDSADSACTTVPSPPRGVISNVNETSLILEWSEPRDLGGRDDLLYNVICKKCHGAGGASACSRCDDNVEFVPRQLGLTERRVHISHLLAHTRYTFEVQAVNGVSGKSPLPPRYAAVNITTNQAAPSEVPTLRLHSSSGSSLTLSWAPPERPNGVILDYEMKYFEKSEGIASTVTSQMNSVQLDGLRPDARYVVQVRARTVAGYGQYSRPAEFETTSERGSGAQQLQEQLPL
Consider B3, for which the Kd with human Ephrin-A4 turned out to be 108 nM.

B4: EphA7 (protein)
chain: QAAKEVLLLDSKAQQTELEWISSPPNGWEEISGLDENYTPIRTYQVCQVMEPNQNNWLRTNWISKGNAQRIFVELKFTLRDCNSLPGVLGTCKETFNLYYYETDYDTGRNIRENLYVKIDTIAADESFTQGDLGERKMKLNTEVREIGPLSKKGFYLAFQDVGACIALVSVKVYYKKCWSIIENLAIFPDTVTGSEFSSLVEVRGTCVSSAEEEAENAPRMHCSAEGEWLVPIGKCICKAGYQQKGDTCEPCGRGFYKSSSQDLQCSRCPTHSFSDKEGSSRCECEDGYYRAPSDPPYVACTRPPSAPQNLIFNINQTTVSLEWSPPADNGGRNDVTYRILCKRCSWEQGECVPCGSNIGYMPQQTGLEDNYVTVMDLLAHANYTFEVEAVNGVSDLSRSQRLFAAVSITTGQAAPSQVSGVMKERVLQRSVELSWQEPEHPNGVITEYEIKYYEKDQRERTYSTVKTKSTSASINNLKPGTVYVFQIRAFTAAGYGNYSPRLDVATLEEATGKMFEATAVSSEQNPV
In the experiment with human Ephrin-A4, B4 came in with a Kd of 86 nM.
